In US9757408B2 (Hayashibara Co., Ltd., priority 2010, dated 2017):
In brackets after ≈: the same amount, converted by molar mass. Where two headings read alike, the source gives them in different places. Marks after values point to notes of the source that are not given here.

Legend:
[1] = mouse, in vivo
Experimental: (§2) The eight mice in each five groups were sensitized (may be simply called “sensitization”, hereinafter) with picryl chloride (Tokyo Chemical Industry Co., Ltd., Tokyo, Japan) in such a manner of dropping a solution, which had been dissolved in a mixture solution of ethanol and acetone in a volume ratio of 4:1 at a concentration of 5%, on the shaved abdominal skin of the mice and on four footpads in a total volume of 150 μL/mouse, and spreading the solution over the abdominal skin and the foot pads by using a micropipette similarly as above.
(§3) Throughout the test period, the mice were weighed once a week. The judgement of the conditions of skin inflammation was conducted twice a week every Tuesday and Friday from the 3rd induction for the degrees of four items of red flare/bleeding, edema (swelling of earflap), chafing/loss of tissue, and the formation of scar tissue/drying, and scored based on the criterion of four grades shown in Table 17; “0” (symptomless), “1” (mild), “2” (moderate), and “3” (severe). The total scores of each evaluation items for each group were averaged for use as a skin score.

[2] = tested on: TNF-α production from mouse intraperitoneal macrophages; experiment: TNF-α production from mouse intraperitoneal macrophages, LPS + IFN-γ, ELISA (Experiment 2); format: cell-based; settings: for TNF-α Concentration: LPS 2 μg/mL, IFN-γ 10 IU/mL
Experimental: The resulting cell suspension was added to a dish for tissue culture (product code: 353003, commercialized by Becton Drive Franklin Lakes, N.J., USA), and incubated in a 5% v/v CO2 incubator at 37° C. for 1.5 hours to attach the peritoneal exudate macrophages on the surface of the dish.
TNF-α in each collected supernatant was assayed with enzyme-linked immunosorbent assay (ELISA) (Experiment groups 2 to 5). […] The results are in Table 2 in parallel. The test for each Experiment group was conducted by using three wells. The assay for TNF-α was conducted on an ELISA using a commercialized rat anti-mouse TNF-α antibody (“Rat anti-mouse/rat TNF antibody” (product code: 551225), a product name of Becton Drive Franklin Lakes, N.J., USA) as a solid phase antibody; a commercialized biotin-labeled rat anti-mouse TNF-α antibody (“Biotin-Labeled Rat Anti-Mouse TNF Antibody”, product code: 554415, commercialized by Becton Drive Franklin Lakes, N.J., USA) as a secondary antibody; and an HRPO-labeled streptavidin.

[3] = tested on: IL-6 in serum of mice administered with LPS; experiment: Serum IL-6 in LPS-administered mice, ANO i.v. (Experiment 7); format: in vivo, BALB/c mice; settings: LPS 18 mg/kg i.p., serum two hours after LPS
Experimental: More specifically, 18 BALB/c female mice, 9-week-old, commercialized by Japan Charles River, Tokyo, Japan, were randomly divided into three groups, six heads each. An LPS specimen derived from E. coli (055:B5), commercialized by Sigma-Aldrich Corporation, St. Louis, Mo. USA, was dissolved in physiological saline and intraperitoneally administered to all the 6 mice in respective three groups at a dose of 18 mg/kg body weight of LPS (Experiment groups 1 to 3). […] To the six mice of the remaining one group was intravenously administered PBS in a liquid volume of 0.2 mL/head simultaneously with the administration of LPS (Experiment group 1).
For the mice in each group, they were collected blood at two hours after the LPS administration, followed by assaying the level of TNF-α, IL-6, IL-10, and IL-12 in each serum and averaging the data for each group. For the assay of the level of TNF-α, the same ELISA as in Experiment 2 was used and for the assay of the level of IL-6, the same ELISA as in Experiment 3 was used. […]

[4] = tested on: mice with bacterial shock induced by LPS; experiment: LPS bacterial shock mice, survival, oral administration (Experiment 10); format: in vivo, BALB/c mice; settings: LPS 18 mg/kg i.p.
[5] = tested on: TNF-α in serum of mice administered with LPS; experiment: Serum TNF-α in LPS-administered mice, oral administration (Experiment 11); format: in vivo, BALB/c mice; settings: LPS 18 mg/kg i.p., serum 90 min after LPS
Experimental: (§1) The seven mice in another one group were orally administered through a gastric tube with 3′-glucosyl-adenosine N1-oxide, which had been dissolved in PBS, at a dose of 200 mg/kg body weight in a liquid volume of 0.2 mL/head (Experiment group 4). The seven mice in the remaining one group were orally administered through a gastric tube with PBS in a liquid volume of 0.2 mL/head (Experiment group 1). All the mice were intraperitoneally administered with an LPS specimen derived from E. coli (055:B5), commercialized by Sigma-Aldrich Corporation, St. Louis, Mo. USA, which had been dissolved in PBS, at a dose of 18 mg/kg body weight (Experiment groups 1 to 4). For each group, the mice were collected blood from their tail veins at 90 min after administering LPS, followed by assaying the concentrations of TNF-α, IL-6, and IL-10 contained in serum by the same method as in […].

[6] = tested on: IL-10 in serum of mice administered with LPS; experiment: Serum IL-10 in LPS-administered mice, oral administration (Experiment 11); format: in vivo, BALB/c mice; settings: LPS 18 mg/kg i.p., serum 90 min after LPS
Experimental: as §1

BALB/c mice = experiment: Acute toxicity test, intraperitoneal (Experiment 20); settings: mouse, in vivo, ip
Experimental: As a control, only PBS was intraperitoneally administered to 10 BALB/c mice (6-week-old, female, average weight of 20 g, commercialized by Charles River Laboratories Japan Inc., Tokyo, Japan) at a dose of 1 mL/head, followed by observing the course of the mice for 24 hours.

physchem = settings: aqueous buffer
[7] = Body weight of picryl chloride-sensitized mice applied with gels (Experiment 16); settings: picryl chloride-sensitized NC/Nga mice, throughout the test period
Experimental: as §2, §3

Nc1ncnc2c1ncn2[C@@H]1O[C@H](CO)[C@@H](O)[C@H]1O [AN, adenosine]
body weight of mice applied with the gel [1]: reduction of increasing rate of their body weights

Nc1c2ncn([C@@H]3O[C@H](CO)[C@@H](O)[C@H]3O)c2nc[n+]1[O-] [ANO, adenosine N1-oxide]
TNF-α Concentration ([2]; ANO 0.006 μM): 1573 pg/mL
TNF-α Concentration ([2]; ANO 0.031 μM): 1637 pg/mL
TNF-α Concentration ([2]; ANO 0.063 μM): 1136 pg/mL
TNF-α Concentration ([2]; ANO 0.313 μM): 545 pg/mL
concentration range in which the production of TNF-α was significantly inhibited ([2]; mouse intraperitoneal macrophages, LPS and IFN-γ): ≥ 0.063 µM
IL-6 Concentration ([3]; ANO 68 mg/kg i.v.): 59.1 ng/mL
IL-6 Concentration ([3]; ANO 135 mg/kg i.v.): 46.3* ng/mL
Survival rate (%) of mice, 22 Hours ([4]; oral 400 mg/kg (200 × 2 shots)): 75%
Survival rate (%) of mice, 31 Hours ([4]; oral 400 mg/kg (200 × 2 shots)): 75%
Survival rate (%) of mice, 46 Hours ([4]; oral 400 mg/kg (200 × 2 shots)): 50%
Survival rate (%) of mice, 55 Hours ([4]; oral 400 mg/kg (200 × 2 shots)): 50%
Survival rate (%) of mice, 72 Hours ([4]; oral 400 mg/kg (200 × 2 shots)): 100%
Survival rate (%) of mice, 79 Hours ([4]; oral 400 mg/kg (200 × 2 shots)): 50%
Survival rate (%) of mice, 22 Hours ([4]; oral 600 mg/kg (200 × 3 shots)): 87.5%
Survival rate (%) of mice, 31 Hours ([4]; oral 600 mg/kg (200 × 3 shots)): 87.5%
Survival rate (%) of mice, 46 Hours ([4]; oral 600 mg/kg (200 × 3 shots)): 87.5%
Survival rate (%) of mice, 55 Hours ([4]; oral 600 mg/kg (200 × 3 shots)): 87.5%
Survival rate (%) of mice, 72 Hours ([4]; oral 600 mg/kg (200 × 3 shots)): 100%
Survival rate (%) of mice, 79 Hours ([4]; oral 600 mg/kg (200 × 3 shots)): 75%
Amount of TNF-α ([5]; oral 100 mg/kg): 1339 pg/mL
Amount of TNF-α ([5]; oral 200 mg/kg): 874* pg/mL
Amount of IL-10 ([6]; oral 100 mg/kg): 5.6* ng/mL
Amount of IL-10 ([6]; oral 200 mg/kg): 9.7** ng/mL
LD50 (BALB/c mice): ≥ 1,000 mg/kg body weight
change in appearance after administration (BALB/c mice): no change in appearance
solubility (physchem): ~20 mg/mL (≈ 70.6 mM)

OC[C@H]1O[C@@H](n2cnc3c(O)ncnc32)[C@H](O)[C@@H]1O [IN, inosine]
body weight of mice applied with the gel [7]: reduction of increasing rate of their body weights
